This is an account of results in PMC5108082, “Pharmacokinetics, toxicity, and cytochrome P450 modulatory activity of plumbagin” (BMC Pharmacology & Toxicology, 2016).

One series can be described thus: in vivo. Conditions: male, Wistar, rat, po, 100 mg/kg. As to the method:
Pharmacokinetic investigation was performed in 4 male Wistar rats (weighing 200–350 g) following a single oral dose of 100 mg/kg body weight plumbagin (1 mL). The control group received 20 % Tween-80 (1 mL). Blood samples (500 μL each) were collected from the tail vein of each rat at 0, 1, 2, 3, 5, 8, 24, 48, and 72 h after dosing. Plasma was separated from whole blood samples through centrifugation at 3000 × g for 10 min.
Concentrations of plumbagin in plasma and urine samples collected from all animals were measured using liquid chromatographic-mass spectrometry (LC-MS/MS) according to the previously described method with modifications. The limits of quantification (LOQ) and detection (LOD) for plumbagin were 5 and 2 ng/mL plasma, respectively. Recovery of the compound in plasma after sample preparation procedure was between 82 and 92 %. The assay intra- and inter-day coefficients of variation (% CV) were 0.7–4.7 % and 3.9–8.3 %, respectively. In brief, plasma sample (100 μL) was mixed with 10 ng/mL honokiol (5 μL) and ethyl acetate (1 mL) and centrifuged at 12,000 × g for 15 min. The upper layer was transferred to a new tube and evaporated to dryness under nitrogen flow. The dried residue was reconstituted with 100 μL of the mobile phase and a 5 μL aliquot was injected onto the LC–MS/MS. The samples were collected from the metabolic cages at 24, 48, 72, 96, and 120 h. All were centrifuged at 1500 × g for 10 min and the supernatant (100 μL) was extracted with ethyl acetate (1 mL). The extract was dried and the residue was reconstituted with 100 μL of the mobile phase and a 5 μL aliquot was injected onto the LC–MS/MS.
The LC-MS/MS system used consists of Agilent 1100 Separation Module (Agilent Technologies, CA, USA) solvent and sample delivery, Av QTRAP 5500 Triple Quadrupole Mass Spectrometer (AB Sciex, Foster City, CA, USA) equipped with CID, and Multiple Reactions Monitoring (MRM). Mass spectrometric analysis was performed in the negative-ion mode (ESI). The following parameters of the turbo ion spray were used: ion spray voltage = −4500 V; the ion source gas 1 (GS1), gas 2 (GS2), curtain gas (CUR) and collision gas (CAD) were 50, 60, 25 and 5, respectively; and the desolvation gas (nitrogen) heated to 500 °C. Separation was performed using Hypersil gold reversed-phase C18 column (50 mm × 4.6 mm i.d., 5 μM: Thermo Scientific, Fremont, CA, USA) with the mobile phase consisting of a mixture of (A) water containing 0.1 % formic acid and (B) 100 % methanol, running with gradient mode at the flow rate of 0.6 mL/min at 25 °C (Table 1). On the basic of the full-scan mass spectra of each analyze, the most abundant ions were selected and the mass spectrometer was set to monitor the transitions of the precursors to the product ions as follows: m/z 187– >159 for plumbagin, and 265– >224 for honokiol (internal standard). The system was controlled by Analyst^TM software (AB Sciex, Foster City, CA, USA).
Pharmacokinetic parameters were determined using a non-compartmental analysis using WinNonLin^TM software (version 6.3, Pharsights, Certara, USA). Concentrations of drugs lower than the limit of quantification (LOQ) were expressed as zero (undetectable). The Cmax (maximum concentration); tmax (time of maximum concentration) were determined by direct inspection of the plasma concentration–time data. […] The extrapolated AUC from the last sampling time to infinity was estimated from Ct/elimination rate constant (λz). λz was calculated from at least five concentration–time points of elimination phase. Apparent oral clearance (CL/F) was calculated as dose/AUC0−∞. Volume of distribution (Vz/F) was calculated as CL/F/z, and the terminal half-life (t1/2z) was calculated as 0.693/λz. Mean residence time (MRT) was calculated from the ratio of AUMC0-α)/AUC0−∞.

A further series has as its system Wistar rats. In words: acute toxicity test, single oral dose. It is filed as in vivo, rat. As for the experimental part:
Plumbagin was dissolved with 20 % Tween-80 to obtain the desired concentrations. Wistar rats were fasting 2 h before administration of a single oral dose of the plumbagin. Animals were divided into eight groups of six (3 males and 3 females for each group). For the acute toxicity test, rats in each group were fed with plumbagin at a single oral dose of 500, 250, or 150 mg/kg body weight (1 mL); control group received a single oral dose of 20 % Tween-80 (1 mL). For the subacute toxicity test, rats in each group were fed with plumbagin at a daily dose of 100, 50, or 25 mg/kg body weight (1 mL) for 28 days; control group received a daily oral dose of 20 % Tween-80 for 28 days (1 mL).
General behavioral changes of each rat was observed continuously for 1 h after each dose, intermittently every 4 h, and thereafter over a period of 24 h. […] At the end of the observation period, all animals were sacrificed under ether anesthesia (isoflurane) and vital organs (liver, lung, kidney, heart, and spleen) were removed from all animals for gross and histopathological examination. Blood sample was collected from each rat through cardiac puncture for analysis of plasma chemistry (heparin as an anticoagulant) and blood hematology (EDTA as an anticoagulant).

[1] abbreviates: single oral dose 150 mg/kg body weight, 14 days observation.

What is called AUC(0-inf) is total exposure, with the tail of the curve extrapolated. High values mean high exposure, low ones low exposure. For orientation: AUC(0-t) means exposure summed from dosing to a finite time, without extrapolation to infinity. A word on the CL/F: it is the apparent clearance, not corrected for the fraction that reaches the circulation. A word on the Cmax: it is the maximum level reached in the sampled fluid or tissue. For orientation: Tmax means the time from dosing to the highest level. In general, Vd/F refers to the volume of distribution divided by bioavailability. A word on the half-life: it is how long it takes for the measured level to halve. A high value points to slow loss. In “in vivo”, `CC1=CC(=O)c2c(O)cccc2C1=O` [plumbagin, 5-hydroxy-2-methyl-1,4-naphthoquinone] gave an area under the curve AUC(0-inf) of 6.71 µg·h/mL, an exposure AUC(0-t) of 6.51 µg·h/mL, a CL/F of 15 L/h/kg and a Cmax of 0.46 µg/mL. Also, in the series “in vivo”, the Tmax is 5 h, the Vd/F came out at 220 L/kg, the “t1/2 (elimination half-life)” value was 9.63 (3.04) h and the “time up to which detected in systemic circulation” value is given as 48 h. In addition, the “time up to which detected in urine (complete elimination in urine)” value in “in vivo” amounted to 96 h. Also, the “plumbagin excreted in urine” value in the series “in vivo” (72 h) is on record as 15 (9) μg. Also, the half-life in “in vivo” (t1/2 (elimination half-life)) is about 9.6 h. For the same compound, the gender-specific toxicity result with Wistar rats (all dose levels) is reported as “No gender-specific toxicity was observed”. Further, in the series with Wistar rats (all dose levels (150, 250, 500 mg/kg)), the “histopathological examination (liver, kidney, heart, spleen, lung)” value was “no significant change in size and morphology”. In the series on Wistar rats (setting [1]), the “signs of toxicity, water and food consumption, body weight” value is on record as “no visible sign of toxicity”; the survival result is given as “All rats survived”. Besides, the animals died in the series on Wistar rats (single oral dose 250 mg/kg body weight) is listed as 3/6. In addition, the animals died with Wistar rats (single oral dose 500 mg/kg body weight) is given as 6/6. Moreover, the signs of toxicity result in the series with Wistar rats (single oral dose 250 and 500 mg/kg body weight) was “toxic signs and symptoms including anxiety, salivation, exhibited chewing, and agitation”.
